{"source": "patent US20140200136A1", "about": "“Agricultural mixtures comprising arylquinazolinone compounds” (BASF SE, priority 2011, published 2014)", "format_in_all_cases": "cell-based", "key": {"Pyricularia oryzae": {"system": "Pyricularia oryzae", "settings": "single active"}, "Septoria tritici": {"system": "Septoria tritici", "experiment": "Activity against leaf blotch on wheat caused by Septoria tritici (Septtr), microtiter plate test", "settings": "single active"}, "Leptosphaeria nodorum": {"system": "Leptosphaeria nodorum", "experiment": "Activity against wheat leaf spots caused by Leptosphaeria nodorum (Leptno), microtiter plate test", "settings": "single active, 7 days after inoculation"}}, "note": "Like-named read-outs stand apart in the source and are kept apart here."}
{"compound": "COC(=O)N(OC)c1ccccc1COc1ccn(-c2ccc(Cl)cc2)n1", "note": "[Pyraclostrobin]", "values": [{"measurement": "Observed efficacy", "setting": "Pyricularia oryzae; 0.004 ppm", "result": 32}]}
{"compound": "Cn1cc(C(=O)Nc2ccccc2-c2cc(F)c(F)c(F)c2)c(C(F)F)n1", "note": "[Fluxapyroxad]", "values": [{"measurement": "Observed efficacy", "setting": "Septoria tritici; 0.063 ppm", "result": 58}]}
{"compound": "zinc propylenebis(dithiocarbamate) polymer [Propineb, reference compound]", "values": [{"measurement": "Observed efficacy", "setting": "Leptosphaeria nodorum; concentration 4 ppm", "result": 57}]}
{"compound": "O=C(Nc1ccccc1-c1ccc(Cl)cc1)c1cccnc1Cl", "note": "[Boscalid]", "values": [{"measurement": "Observed efficacy", "setting": "Pyricularia oryzae; 16 ppm", "result": 8}]}
{"compound": "CON=C(C(=O)OC)c1ccccc1CON=C(C)c1cccc(C(F)(F)F)c1", "note": "[Trifloxystrobin]", "values": [{"measurement": "Observed efficacy", "setting": "Pyricularia oryzae; 0.016 ppm", "result": 26}]}
{"compound": "N#Cc1c(Cl)c(Cl)c(Cl)c(C#N)c1Cl", "note": "[Chlorothalonil]", "values": [{"measurement": "Observed efficacy", "setting": "Pyricularia oryzae; 0.25 ppm", "result": 30}]}
{"compound": "CO/N=C(/C1=NOCCO1)c1ccccc1Oc1ncnc(Oc2ccccc2Cl)c1F", "note": "[Fluoxastrobin]", "values": [{"measurement": "Observed efficacy", "setting": "Septoria tritici; 0.25 ppm", "result": 58}]}
{"compound": "Cc1ccc(-c2c(Cl)nc(C#N)n2S(=O)(=O)N(C)C)cc1", "note": "[Cyazofamid]", "values": [{"measurement": "Observed efficacy", "setting": "Pyricularia oryzae; 1 ppm", "result": 10}]}
{"compound": "COC(=O)Nc1nc2ccccc2[nH]1", "note": "[Carbendazim]", "values": [{"measurement": "Observed efficacy", "setting": "Pyricularia oryzae; 0.25 ppm", "result": 19}]}
{"compound": "Cc1cc(F)c(-n2cnc3ccc(F)cc3c2=O)cc1[S+]([O-])CC(F)(F)F", "note": "(stereo not drawn) [CE.I.31, 6-Fluoro-3-[2-fluoro-4-methyl-5-2(2,2,2-trifluoroethanesulfinyl)-phenyl]-3H-quinazolin-4-one]", "values": [{"measurement": "Observed efficacy", "setting": "Septoria tritici; 63 ppm", "result": 19}, {"measurement": "Observed efficacy", "setting": "Pyricularia oryzae; 1 ppm", "result": 8}, {"measurement": "Observed efficacy", "setting": "Pyricularia oryzae; 4 ppm", "result": 11}, {"measurement": "Observed efficacy", "setting": "Pyricularia oryzae; 63 ppm", "result": 16}, {"measurement": "Observed efficacy", "setting": "Leptosphaeria nodorum; concentration 63 ppm", "result": 19}]}
{"compound": "CO/C=C(/C(=O)OC)c1ccccc1COc1cccc(C(F)(F)F)n1", "note": "[Picoxystrobin]", "values": [{"measurement": "Observed efficacy", "setting": "Pyricularia oryzae; 0.016 ppm", "result": 19}]}
